Results from patent US20230089368A1, “POLYAROMATIC UREA DERIVATIVES AND THEIR USE IN THE TREATMENT OF MUSCLE DISEASES” (ANAGENESIS BIOTECHNOLOGIES S.A.S., priority 2019, published 2023).

Assays:
[1] = tested on: satellite-like cells (Pax7-positive cells) in hMP; experiment: Myotube assay: Pax7-positive (satellite-like) cell quantification; assay type: cell-based, human; set-up: key to Pax7% (pool of Pax7-positive cells) / Pax7: −: Depletes the pool of cells, while positively affects the myotubes; +: Maintains or increases the pool of cells, with at least 1 of the highest concentration known to be cytotoxic; ++: Maintains or increases the pool of cells, without any toxicity; conditions: myotube assay, compounds incubated 3 days
Procedure, shortened: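 DMD hiPSC-derived muscle progenitors (hMP) proliferated 4 days, then plated on collagen I in K5 medium with 5 μM Y-27632. Compound added at 1.5 nM–30 μM for 3 days at 37° C, then cells fixed and immunostained. Pax7-positive cells counted as percentage of total nuclei, duplicates averaged.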

[2] = tested on: muscle progenitors (hMP) from DMD hiPSC or WT hiPSC; experiment: Myotube assay: myogenic activity (total myotube area per well); assay type: cell-based, human; conditions: Homo sapiens, 72 h, myotube assay, compounds incubated 3 days; for Emax: read-out: MA (normalized Myotube Area, efficacy); for EC50: 10 points dose-response 1.5 nM to 30 μM, read-out: EC50 (myogenic activity, half-maximal generation of myotubes)
Procedure, shortened: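 DMD or WT hiPSC-derived muscle progenitors plated on collagen I in K5 medium with 5 μM Y-27632, treated with compound (1.5 nM–30 μM) for 3 days at 37° C. Cells were fixed, stained for alpha-actinin and imaged for total myotube area per well. EC50 and normalized myotube area (MA) taken from duplicate-averaged data.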

Structure (SMILES)	Pax7% (pool of Pax7-positive cells) [1]	Emax [2]	EC50 [2]
CC(C)(C)c1cc(NC(=O)Nc2ccc(Oc3ccnc4[nH]c(=O)cnc34)cc2F)n(Cc2ccccc2)n1 [(j), 1-(1-benzyl-3-(tert-butyl)-1H-pyrazol-5-yl)-3-(2-fluoro-4-((3-oxo-3,4-dihydropyrido[2,3-b]pyrazin-8-yl)oxy)phenyl)urea]	++	50 to 75%	
CC(=O)Nc1cc(Oc2ccc(NC(=O)Nc3cc(C(C)(C)C)nn3-c3ccccc3)c(F)c2)ccn1 [(ae), N-(4-(4-(3-(3-(tert-butyl)-1-phenyl-1H-pyrazol-5-yl)ureido)-3-fluorophenoxy)pyridin-2-yl)acetamide]	+	50 to 75%	
COc1cc(Oc2ccnc3[nH]c(=O)cnc23)ccc1NC(=O)Nc1cc(C(C)(C)C)nn1-c1ccccc1 [(bc), 1-(3-(tert-butyl)-1-phenyl-1H-pyrazol-5-yl)-3-(2-methoxy-4-((3-oxo-3,4-dihydropyrido[2,3-b]pyrazin-8-yl)oxy)phenyl)urea]	++	≥ 75%	1 to 5 µM
CC(=O)n1nc(C(C)(C)C)cc1NC(=O)Nc1ccc(Oc2ccnc3[nH]c(=O)cnc23)cc1F [(o), 1-(1-acetyl-3-(tert-butyl)-1H-pyrazol-5-yl)-3-(2-fluoro-4-((3-oxo-3,4-dihydropyrido[2,3-b]pyrazin-8-yl)oxy)phenyl)urea]	++	25 to 50%	
CC(C)(C)c1cc(NC(=O)Nc2ccc(Oc3ccnc4[nH]c(=O)cnc34)c(OC(F)(F)F)c2)n(-c2ccccc2)n1 [(cp), 1-(3-(tert-butyl)-1-phenyl-1H-pyrazol-5-yl)-3-(4-((3-oxo-3,4-dihydropyrido[2,3-b]pyrazin-8-yl)oxy)-3-(trifluoromethoxy)phenyl)urea]	+	50 to 75%	
CSc1cc(Oc2ccnc3[nH]c(=O)cnc23)ccc1NC(=O)Nc1cc(C(C)(C)C)nn1-c1ccc(C#N)cc1 [(cc), 1-(3-(tert-butyl)-1-(4-cyanophenyl)-1H-pyrazol-5-yl)-3-(2-(methylthio)-4-((3-oxo-3,4-dihydropyrido[2,3-b]pyrazin-8-yl)oxy)phenyl)urea]	+	≥ 75%	
CNCC(=O)Nc1cc(Oc2ccc(NC(=O)Nc3cc(C(C)(C)C)nn3-c3ccccc3)c(SC)c2)ccn1 [(bq), N-(4-(4-(3-(3-(tert-butyl)-1-phenyl-1H-pyrazol-5-yl)ureido)-3-(methylthio)phenoxy)pyridin-2-yl)-2-(methylamino)acetamide]	+	≥ 75%	< 0.5 µM
CC(C)(C)c1cc(NC(=O)Nc2ccc(Oc3ccc(F)cc3)cc2F)n(-c2ccccc2)n1 [(af), 1-(3-(tert-butyl)-1-phenyl-1H-pyrazol-5-yl)-3-(2-fluoro-4-(4-fluorophenoxy)phenyl)urea]	++	25 to 50%	
CCOC(=O)Nc1cc(Oc2ccc(NC(=O)Nc3cc(C(C)(C)C)on3)c(SC)c2)ccn1 [(di), Ethyl (4-(4-(3-(5-(tert-butyl)isoxazol-3-yl)ureido)-3-(methylthio)phenoxy)pyridin-2-yl)carbamate]	++	≥ 75%	
CSc1cc(Oc2ccnc(C(=O)Nc3ccccc3)c2)ccc1NC(=O)Nc1cc(C(C)(C)C)nn1-c1ccccc1 [(co), 4-(4-(3-(3-(tert-butyl)-1-phenyl-1H-pyrazol-5-yl)ureido)-3-(methylthio)phenoxy)-N-phenylpicolinamide]	++	25 to 50%	
CSc1cc(Oc2ccnc3[nH]c(=O)cnc23)ccc1NC(=O)Nc1cc(C(C)(C)C)nn1-c1ccccn1 [(ar), 1-(3-(tert-butyl)-1-(pyridin-2-yl)-1H-pyrazol-5-yl)-3-(2-(methylthio)-4-((3-oxo-3,4-dihydropyrido[2,3-b]pyrazin-8-yl)oxy)phenyl)urea]	++	≥ 75%	
CSc1cc(Oc2ccnc3c2CCCN3)ccc1NC(=O)Nc1cc(C(C)(C)C)nn1-c1ccccc1 [(be), 1-(3-(tert-butyl)-1-phenyl-1H-pyrazol-5-yl)-3-(2-(methylthio)-4-((5,6,7,8-tetrahydro-1,8-naphthyridin-4-yl)oxy)phenyl)urea]	++	≥ 75%	0.5 to 1 µM
COc1ccccc1-n1nc(C(C)(C)C)cc1NC(=O)Nc1ccc(Oc2ccnc3[nH]c(=O)cnc23)cc1SC [(av), 1-(3-(tert-butyl)-1-(2-methoxyphenyl)-1H-pyrazol-5-yl)-3-(2-(methylthio)-4-((3-oxo-3,4-dihydropyrido[2,3-b]pyrazin-8-yl)oxy)phenyl)urea]	++	≥ 75%	≥ 5 µM
CC(C)(C)c1cc(NC(=O)Nc2ccc(Oc3ccnc4[nH]c(=O)cnc34)cc2F)n(-c2cccnc2)n1 [(l), 1-(3-(tert-butyl)-1-(pyridin-3-yl)-1H-pyrazol-5-yl)-3-(2-fluoro-4-((3-oxo-3,4-dihydropyrido[2,3-b]pyrazin-8-yl)oxy)phenyl)urea]	+	50 to 75%	
CC(C)(C)c1cc(NC(=O)Nc2cc(F)c(Oc3ccnc4[nH]c(=O)cnc34)cc2F)n(-c2ccccc2)n1 [(bt), 1-(3-(tert-butyl)-1-phenyl-1H-pyrazol-5-yl)-3-(2,5-difluoro-4-((3-oxo-3,4-dihydropyrido[2,3-b]pyrazin-8-yl)oxy)phenyl)urea]	++	≥ 75%	
CCOC(=O)Nc1cc(Oc2ccc(NC(=O)Nc3cc(C(C)(C)C)nn3-c3ccccc3)c(SC)c2)ccn1 [(cv), Ethyl (4-(4-(3-(3-(tert-butyl)-1-phenyl-1H-pyrazol-5-yl)ureido)-3-(methylthio)phenoxy)pyridin-2-yl)carbamate]	+	≥ 75%	
Cc1cc(Oc2ccnc3[nH]c(=O)cnc23)ccc1NC(=O)Nc1cc(C(C)(C)C)nn1-c1ccccc1 [(al), 1-(3-(tert-butyl)-1-phenyl-1H-pyrazol-5-yl)-3-(2-methyl-4-((3-oxo-3,4-dihydropyrido[2,3-b]pyrazin-8-yl)oxy)phenyl)urea]	++	≥ 75%	
